Two compounds from US20220118117A1, “MODULATORS OF METABOTROPIC GLUTAMATE RECEPTOR 4” (The General Hospital Corporation, priority 2019, published 2022) can be followed below.

The pEC50 is the negative decadic logarithm of the EC50, by convention in mol/L.

In one series the target is mGluR4 (Homo sapiens, UniProt Q14833). Kind of series: GloSensor cAMP biosensor assay, mGluR4 PAM and agonist activity. In kind it is cell-based. Further details: expressed in transfected cells. The following applies: in presence of EC20 concentration of agonist (1 μM L-SOP); read-out: EC50, mGluR4 PAM activity. The protocol:
Cell Culture. HEK-293 cells were maintained with complete Dulbecco's modified Eagle's medium (DMEM), which was composed of 10% fetal bovine serum (FBS), 2 mM L-glutamine, 100 units/mL penicillin G, 100 μg/mL streptomycin at 37° C. in the presence of 5% CO2. HEK-293 stable cell lines with tetracycline inducible expression of mGluR1, mGluR2, mGluR4, mGluR6 or mGluR8 were maintained with complete DMEM with Hygromycin B (100 μg/mL), Blasticidin (15 μg/mL) at 37° C. in the presence of 5% CO2.
cAMP assay. The Gi/o coupled receptors (mGluR2, mGluR3, mGluR4, mGluR6 and mGluR8) were tested using cAMP assay. Promega's split luciferase based GloSensor cAMP biosensor technology was used in determining Gi-GPCR mediated cAMP production in live cells. On the cells stably expressing mGluR2, mGluR3, mGluR4, mGluR6 or mGluR8, GloSensor cAMP DNA construct was transfected overnight. Cells were seeded into PLL coated 384-well white clear bottom cell culture plates with complete BME Buffer with Tetracycline (1 μg/mL) at a density of 20,000 cells for another 24 h. The cell medium was removed and then 20 μL of buffer was loaded. […] Luminescence was counted in a Trilux luminescence counter. Data were analyzed with Prizm 5.0 (GraphPad software).
Secondary assays—Dose-response assays. […] For each compound, the results from four replicates were averaged and then either EC50 or IC50 values were calculated by non-linear regression using the 4-parameter logistic equation. […]
In sum, the mGluR4 PAM activity was determined using Promega's split luciferase based GloSensor cAMP biosensor assay (refs. 41-42). mGluR4 is coupling to Gαi protein to inhibit adenylate cyclase, which converts ATP to cAMP, which plays an important role in many signal transduction pathways. […] The mGluR4 PAM activity of 15 was evaluated in presence of EC20 concentration of agonist (1 μM L-SOP) by measuring changes in intracellular cAMP concentration.

The nature of series [1]: ex vivo biodistribution of [18F]15. In kind it is in vivo, Sprague Dawley rats. The following applies: rat, iv. The protocol: Ex vivo Studies of Biodistribution. For biodistribution studies the normal male Sprague Dawley rats were anesthetized with isoflurane/nitrous oxide (1-1.5% isoflurane) to install catheter into the tail vain for administration of radioactivity ([^18F]15, 22±3 MBq, iv). Total of 15 rats in deep anesthesia (isoflurane 4% and cervical dislocation) were sacrificed in a group of three at five different time points (5, 10, 20, 30, and 60 min) after injection of [^18F]15. Major organs including lung, heart, liver, spleen, kidney, muscle, midbrain, cortex, cerebellum and blood were harvested to determine radioactivity. The tissue samples were weighted, and the radioactivity was measured with the standard samples of [^18F]15 using Wizard2 2480, Perkin Elmer, Calif. Radioactivity of the tissue samples was determined as percent of the injected activity per gram of the tissue.

Series [2] is described as follows: PET imaging of [18F]15, baseline. Type of series: in vivo, Sprague Dawley rats. The protocol: PET Imaging of [^18F]15 in Rats. Altogether 24 normal male Sprague Dawley rats were used for the imaging studies comprising 15 baseline studies and 15 blocking studies. Rats were anaesthetized with isoflurane/nitrous oxide (1.0-1.5% isoflurane, with oxygen flow of 1-1.5 L/min), and catheter was installed into tail vein for the administration of [^18F]15. Dynamic volumetric PET data was acquired with a PET-CT scanner for 60 min (Triumph-II, Tri-Foil Imaging, Northridge, Calif.). The vital signals such as heart rate and respiration rate were monitored during scanning period. PET data acquisition was started immediately after administration of radioactivity with the dose range of 18-34 MBq depending on the size of the rat followed by CT imaging to obtain anatomical information and data for attenuation correction of PET data. PET data was processed by using maximum-likelihood expectation-maximization (MLEM) algorithm with 30 iterations to dynamic volumetric images, and corrected for uniformity, scatter, and attenuation. The CT data was processed by the modified Feldkamp algorithm using matrix volumes of 512×512×512 and pixel size of […]. Co-registration of CT and PET images and analysis of PET images were carried out using PMOD3.2 software (PMOD Technology, Zurich, Switzerland).

pEC50: −log10 of the molar value.

Sequence of mGluR4 (Q14833 33-912): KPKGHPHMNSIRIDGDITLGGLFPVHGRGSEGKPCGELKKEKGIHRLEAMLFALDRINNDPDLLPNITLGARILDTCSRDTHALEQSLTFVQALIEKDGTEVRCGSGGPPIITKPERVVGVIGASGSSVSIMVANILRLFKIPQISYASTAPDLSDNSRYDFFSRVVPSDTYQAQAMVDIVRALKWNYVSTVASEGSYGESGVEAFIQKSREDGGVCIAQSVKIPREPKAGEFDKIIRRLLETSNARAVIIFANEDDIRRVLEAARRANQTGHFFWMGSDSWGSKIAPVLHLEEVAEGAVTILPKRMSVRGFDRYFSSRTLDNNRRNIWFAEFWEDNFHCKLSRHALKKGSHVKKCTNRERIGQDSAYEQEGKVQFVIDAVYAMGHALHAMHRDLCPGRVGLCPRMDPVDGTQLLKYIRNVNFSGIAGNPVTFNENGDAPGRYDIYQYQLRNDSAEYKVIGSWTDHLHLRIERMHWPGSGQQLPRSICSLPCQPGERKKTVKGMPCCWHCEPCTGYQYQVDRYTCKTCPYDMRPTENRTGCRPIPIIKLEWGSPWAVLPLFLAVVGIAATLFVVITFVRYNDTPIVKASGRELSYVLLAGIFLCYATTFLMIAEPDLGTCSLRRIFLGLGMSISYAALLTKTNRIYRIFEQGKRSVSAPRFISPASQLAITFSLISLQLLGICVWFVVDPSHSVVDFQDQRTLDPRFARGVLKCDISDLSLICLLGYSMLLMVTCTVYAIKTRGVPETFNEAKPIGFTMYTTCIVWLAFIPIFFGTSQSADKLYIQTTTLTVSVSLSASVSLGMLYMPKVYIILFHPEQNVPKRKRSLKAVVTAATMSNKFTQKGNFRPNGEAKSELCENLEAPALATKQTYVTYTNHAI

For `c1ccc(Nc2nc3c(s2)CCCc2[nH]ncc2-3)nc1` [Compound 11], the negative-log EC50 (pEC50) on mGluR4 was 7.26.

For the compound `[2H]C([2H])([18F])Sc1cc(NC(=O)c2ccccn2)ccc1Cl` [[^18F]15], the accumulation in brain in series [1] (at 10 min) is recorded as 0.41±0.18 % ID/g. Moreover, in series [1] (at 20 min), the accumulation in heart stood at 0.50±0.08 % ID/g, the accumulation in liver was 1.33±0.12 % ID/g and the accumulation in lungs came out at 0.58±0.17 % ID/g. Besides, in series [1] (at 30 min), the accumulation in kidneys came out at 0.93±0.57 % ID/g. Further, the BBB crossing result in series [2] (PET, rat brain) is “crosses BBB”. The “time of highest accumulation in the thalamus” value in series [2] (after administration of the ligand) is recorded as “about 2 min”. Besides, the “maximum average uptake in the thalamus” value in series [2] (time interval of 1-10 min after administering) is recorded as 1.77±0.26 % ID/cc.
